Assay results reported in patent US20200375999A1, “PHARMACEUTICAL COMBINATIONS OF EGFR INHIBITORS AND METHODS OF USE THEREOF” (DANA-FARBER CANCER INSTITUTE, INC., priority 2018, published 2020).
Where two headings read alike, the source gives them in different places.

What was measured:
[1] = target: T1, EGFR T790M/L858R Ba/F3 cell line (Homo sapiens, UniProt P00533, T790M/L858R, cells depend on it); assay: Ba/F3 cell proliferation (MTS assay), EGFR T790M/L858R; type: cell-based, murine; conditions: for Activity (% cetuximab); inhibition of proliferation: compound at 1 μM in the presence of 1 μg/mL cetuximab; for Activity (% cetuximab); inhibition of proliferation / Activity (% DMSO control); inhibition of proliferation: EGFR T790M/L858R Ba/F3; for Activity (% DMSO control); inhibition of proliferation: compound at 1 μM
T1 construct: "The constructs were shuttled into the retroviral vector JP1540 using the BD Creator™ System (BD Biosciences)
T1 sequence (P00533 whole entry T790M/L858R): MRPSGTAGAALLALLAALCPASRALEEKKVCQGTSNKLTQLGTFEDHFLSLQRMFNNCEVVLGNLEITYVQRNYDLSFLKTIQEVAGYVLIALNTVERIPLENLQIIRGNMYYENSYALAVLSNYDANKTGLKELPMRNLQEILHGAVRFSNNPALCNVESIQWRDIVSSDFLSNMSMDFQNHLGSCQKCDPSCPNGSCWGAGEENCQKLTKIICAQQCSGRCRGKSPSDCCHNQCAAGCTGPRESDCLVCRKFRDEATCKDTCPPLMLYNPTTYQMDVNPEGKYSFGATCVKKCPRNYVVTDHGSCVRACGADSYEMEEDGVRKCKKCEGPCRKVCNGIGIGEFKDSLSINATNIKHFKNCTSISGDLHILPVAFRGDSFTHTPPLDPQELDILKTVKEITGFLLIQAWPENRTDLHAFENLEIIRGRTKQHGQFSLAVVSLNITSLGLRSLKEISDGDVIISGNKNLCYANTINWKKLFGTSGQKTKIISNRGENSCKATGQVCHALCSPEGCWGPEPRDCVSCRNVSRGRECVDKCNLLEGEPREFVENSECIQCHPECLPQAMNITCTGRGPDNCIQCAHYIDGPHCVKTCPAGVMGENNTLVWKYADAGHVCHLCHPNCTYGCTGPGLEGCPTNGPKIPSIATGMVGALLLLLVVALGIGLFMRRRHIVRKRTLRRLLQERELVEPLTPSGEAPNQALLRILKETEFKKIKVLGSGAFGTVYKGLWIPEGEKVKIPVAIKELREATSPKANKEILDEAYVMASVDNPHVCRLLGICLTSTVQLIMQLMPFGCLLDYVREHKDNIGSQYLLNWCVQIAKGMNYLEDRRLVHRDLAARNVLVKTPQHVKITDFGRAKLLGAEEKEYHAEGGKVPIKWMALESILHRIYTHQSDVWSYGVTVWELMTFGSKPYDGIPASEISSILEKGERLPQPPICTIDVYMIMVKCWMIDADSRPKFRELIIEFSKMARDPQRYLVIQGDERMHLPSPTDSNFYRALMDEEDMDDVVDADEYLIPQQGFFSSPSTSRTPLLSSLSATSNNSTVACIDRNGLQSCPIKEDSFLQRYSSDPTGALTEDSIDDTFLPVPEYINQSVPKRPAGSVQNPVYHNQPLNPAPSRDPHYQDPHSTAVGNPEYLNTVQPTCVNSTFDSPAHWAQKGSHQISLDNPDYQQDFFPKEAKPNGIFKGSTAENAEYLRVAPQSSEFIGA
Method: All cell lines were maintained in RPM 1640 (Cellgro; Mediatech Inc., Herndon, Calif.) supplemented with 10% FBS 100 units/mL penicillin, 100 units/mL streptomycin, and 2 mM glutamine. […] The EGFR 1941R mutation was introduced via site directed mutagenesis using the Quick Change Site-Directed Mutagenesis kit (Stratagene: La Jolla, Calif.) according to the manufacturer's instructions. All constructs were confirmed by DNA sequencing. The constructs were shuttled into the retroviral vector JP1540 using the BD Creator™ System (BD Biosciences). Ba/F3 cells were infected with retrovirus and according to standard protocols, as described previously (Zhou 2009). Stable clones were obtained by selection in puromycin (2 μg/ml).
Growth and inhibition of growth was assessed by MTS assay and was performed according to previously established methods (Zhou 2009). The MTS assay is a colorimetric method for determining the number of viable cells that is based on the bioreduction of MTS by cells to a formazan product that is soluble in cell culture medium and can be detected spectrophotometrically. […] All experimental points were set up in six wells and all experiments were repeated at least three times. […] The curves were fitted using anon-linear regression model with a sigmoidal dose response.

[2] = target: T2, recombinant EGFR T790M/L858R kinase (Homo sapiens, UniProt P00533, L858R/T790M); assay: HTRF-based EGFR biochemical assay
T2 construct: Constructs spanning residues 696-1022 of the human EGFR; GST (cleaved yes); made in house; host or cells: Sf9 insect cells
T2 sequence (P00533 696-1022 T790M/L858R): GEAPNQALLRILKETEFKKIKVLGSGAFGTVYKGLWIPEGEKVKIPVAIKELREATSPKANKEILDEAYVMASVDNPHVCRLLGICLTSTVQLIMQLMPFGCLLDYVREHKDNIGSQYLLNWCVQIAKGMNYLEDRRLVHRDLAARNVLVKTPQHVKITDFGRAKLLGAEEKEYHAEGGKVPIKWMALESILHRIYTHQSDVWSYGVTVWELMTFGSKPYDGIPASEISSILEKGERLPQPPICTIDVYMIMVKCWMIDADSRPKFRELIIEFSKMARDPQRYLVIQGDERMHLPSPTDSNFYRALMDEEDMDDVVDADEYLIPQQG
Method: EGFR kinase proteins were purified by glutathione-affinity chromatography followed by size-exclusion chromatography after cleavage with TEV or thrombin to remove the GST fusion partner following established procedures. (Yun 2008; Yun 2007).
EGFR biochemical assays were carried out using a homogeneous time-resolved fluorescence (HTRF) assay as described previously. The reaction mixtures contained 1 μM biotin-Lck-peptide substrate, wild type or mutant EGFR enzyme in reaction buffer (50 mM HEPES pH 7.1, 10 mM MgCl2, 0.01% BSA. 1 mM TCEP and 0.1 mM Na3VO4) at a final volume of 10 μL. […] All reactions were carried out at room temperature in white ProxiPlate™ 384-well Plus plates (PerkinElmer) and were quenched with 5 μL of 0.2 M EDTA at 60 min. Five μL per well of the detection reagent containing 2.5 ng PT66K (Cis-bio) and 0.05 μg SAXL (Prozyme) were added, and the plates were then incubated at room temperature for 1 hour and read with an EnVision plate reader.

[3] = tested on: EGFR L858R/T790M/C797S Ba/F3 cell line; assay: Ba/F3 cell proliferation (MTS assay), EGFR L858R/T790M/C797S; type: cell-based, murine; conditions: for Activity (% cetuximab); inhibition of proliferation: compound at 1 μM in the presence of 1 μg/mL cetuximab, EGFR L858R/T790M/C797S; for Activity (% DMSO control); inhibition of proliferation: compound at 1 μM, EGFR L858R/T790M/C797S Ba/F3
Method: The EGFR mutant L858R, Del E746_A750, L858R/T790M, DelE746_A750/T790M, L858R/T790M/C797S and Del/T790M/C797S Ba/F3 cells were previously described (Zhou et al., Nature 462, (2009), 1070-1074). All cell lines were maintained in RPM 1640 (Cellgro; Mediatech Inc., Herndon, Calif.) supplemented with 10% FBS 100 units/mL penicillin, 100 units/mL streptomycin, and 2 mM glutamine. L858R cells were maintained in ACL-4 media (Invitrogen, Carlsbad, Calif.) supplemented with 5% FBS, 100 units/mL penicillin, 100 units/mL streptomycin, and 2 mM glutamine. The EGFR 1941R mutation was introduced via site directed mutagenesis using the Quick Change Site-Directed Mutagenesis kit (Stratagene: La Jolla, Calif.) according to the manufacturer's instructions. All constructs were confirmed by DNA sequencing. The constructs were shuttled into the retroviral vector JP1540 using the BD Creator™ System (BD Biosciences). Ba/F3 cells were infected with retrovirus and according to standard protocols, as described previously (Zhou 2009). Stable clones were obtained by selection in puromycin (2 μg/ml).
Growth and inhibition of growth was assessed by MTS assay and was performed according to previously established methods (Zhou 2009). The MTS assay is a colorimetric method for determining the number of viable cells that is based on the bioreduction of MTS by cells to a formazan product that is soluble in cell culture medium and can be detected spectrophotometrically. Ba/F3 cells of different EGFR genotypes were exposed to treatment and the number of cells used per experiment determined empirically and has been previously established (Zhou 2009). All experimental points were set up in six wells and all experiments were repeated at least three times. […] The curves were fitted using anon-linear regression model with a sigmoidal dose response.

[4] = absence of cetuximab, read-out: Ba/F3 cellular activity (EC50) T790M/L858R
[5] = read-out: Ba/F3 cellular activity (EC50) T790M/L858R + Cetuximab (1 μg/mL), presence of 1 μg/mL cetuximab

Row | SMILES | EC50 [1, 4] | EC50 [1, 5] | IC50 [2] | Activity (% cetuximab); inhibition of proliferation [1] | Activity (% DMSO control); inhibition of proliferation [1] | Activity (% cetuximab); inhibition of proliferation [3] | Activity (% DMSO control); inhibition of proliferation [3]
1 | CCC(=O)Nc1ccc2c(c1)N(Cc1ccccc1)C(=O)c1cc(-c3ccc4[nH]ccc4c3)ccc1N2 [Compound I-16] | 250 to 500 nM | 250 to 500 nM | ≥ 750 nM |  |  |  | 
2 | CN1CCC(n2cc(-c3ccc4c(c3)C(=O)N(Cc3cc(F)cc(F)c3)c3cc(F)ccc3N4)cn2)CC1 [Compound I-24] | ≥ 750 nM | ≥ 750 nM | < 250 nM |  |  |  | 
3 | O=C1c2cc(-c3ccc(N4CCNCC4)cc3)ccc2Nc2ccncc2N1Cc1ccccc1 [Compound I-13] | ≥ 750 nM | ≥ 750 nM | ≥ 750 nM |  |  |  | 
4 | O=C1c2cc(-c3ccc(N4CCNCC4)cc3)ccc2Nc2ccc(F)cc2N1Cc1nccs1 [Compound I-7] | ≥ 750 nM | ≥ 750 nM | < 250 nM | C (50 ≤ C < 75) | D (75 ≤ D) | D (75 ≤ D) | D (75 ≤ D)
5 | O=C1c2cc(-c3ccc(-c4cn[nH]c4)cc3)ccc2Nc2ccc(F)cc2N1Cc1ccccc1 [Compound I-4] | ≥ 750 nM | 250 to 500 nM | < 250 nM | A (0 ≤ A < 25) | D (75 ≤ D) | A (0 ≤ A < 25) | D (75 ≤ D)
6 | O=C1c2cc(-c3ccc(N4CCNCC4)cc3)ccc2Nc2ccc(F)cc2N1Cc1ccccc1 [Compound I-1] | ≥ 750 nM | 500 to 750 nM |  | B (25 ≤ B < 50) | D (75 ≤ D) | B (25 ≤ B < 50) | D (75 ≤ D)
7 | Nc1ccc2c(c1)N(Cc1ccccc1)C(=O)c1cc(-c3ccc4[nH]ccc4c3)ccc1N2 [Compound I-14] | ≥ 750 nM | ≥ 750 nM | ≥ 750 nM |  |  |  | 
8 | O=C1c2cc(-c3ccc4[nH]ccc4c3)ccc2Nc2ccc(F)cc2N1c1ccccc1 [Compound I-8] | ≥ 750 nM | ≥ 750 nM | ≥ 750 nM | D (75 ≤ D) | D (75 ≤ D) | D (75 ≤ D) | D (75 ≤ D)
9 | CC(=O)Nc1ccc2c(c1)N(Cc1ccccc1)C(=O)c1cc(-c3ccc4[nH]ccc4c3)ccc1N2 [Compound I-15] | ≥ 750 nM | ≥ 750 nM | ≥ 750 nM |  |  |  | 
10 | O=C1c2cc(-c3ccc4[nH]ccc4c3)ccc2Nc2ccc(F)cc2N1Cc1nccs1 [Compound I-10] | ≥ 750 nM | ≥ 750 nM | ≥ 750 nM | D (75 ≤ D) | D (75 ≤ D) | C (50 ≤ C < 75) | D (75 ≤ D)
11 | CN1CCC(n2cc(-c3ccc4c(c3)C(=O)N(Cc3ccccc3)c3cc(F)ccc3N4)cn2)CC1 [Compound I-3] | ≥ 750 nM | < 250 nM | < 250 nM | B (25 ≤ B < 50) | D (75 ≤ D) | C (50 ≤ C < 75) | D (75 ≤ D)
12 | O=C1c2cc(Br)ccc2Nc2ccc(F)cc2N1Cc1ccccc1 [I-a] | ≥ 750 nM | 250 to 500 nM | < 250 nM |  |  |  | 
13 | CN1CCC(n2cc(-c3ccc4c(c3)C(=O)N(Cc3cccc(F)c3)c3cc(F)ccc3N4)cn2)CC1 [Compound I-22] |  |  | < 250 nM |  |  |  | 
14 | O=C1c2cc(-c3ccc4[nH]ccc4c3)ccc2Nc2ccc(F)cc2N1Cc1ccccc1 [Compound I-2] | ≥ 750 nM | < 250 nM | < 250 nM | B (25 ≤ B < 50) | D (75 ≤ D) | A (0 ≤ A < 25) | D (75 ≤ D)
15 | O=C1c2cc(-c3ccc(N4CCNCC4)cc3)ccc2Nc2ccc(F)cc2N1Cc1ccc2cc[nH]c2c1 [Compound I-19] | ≥ 750 nM | ≥ 750 nM | ≥ 750 nM |  |  |  | 
16 | O=C1c2cc(-c3ccc(N4CCNCC4)cc3)ccc2Nc2ccc(F)cc2N1Cc1cccnc1 [Compound I-6] | ≥ 750 nM | ≥ 750 nM | ≥ 750 nM | D (75 ≤ D) | D (75 ≤ D) | D (75 ≤ D) | D (75 ≤ D)
17 | CN1CCC(c2ccc(-c3ccc4c(c3)C(=O)N(Cc3ccccc3)c3cc(F)ccc3N4)cc2)CC1 [Compound I-17] |  |  | < 250 nM |  |  |  | 
18 | O=C1c2cc(-c3ccc4[nH]ccc4c3)ccc2Nc2ccc(F)cc2N1Cc1cccnc1 [Compound I-9] | ≥ 750 nM | ≥ 750 nM | ≥ 750 nM | D (75 ≤ D) | D (75 ≤ D) | D (75 ≤ D) | D (75 ≤ D)
19 | O=C1c2cc(-c3ccc(N4CCNCC4)cc3)ccc2Nc2ccc(F)cc2N1Cc1cccc2cc[nH]c12 [Compound I-18] | ≥ 750 nM | < 250 nM | < 250 nM |  |  |  | 
20 | O=C1c2cc(-c3ccc(N4CCNCC4)cc3)ccc2Nc2ccc(F)cc2N1c1ccccc1 [Compound I-5] | ≥ 750 nM | ≥ 750 nM | ≥ 750 nM | D (75 ≤ D) | D (75 ≤ D) | D (75 ≤ D) | D (75 ≤ D)
21 | CN1CCC(n2cc(-c3ccc4c(c3)C(=O)N(Cc3cccc(Cl)c3)c3cc(F)ccc3N4)cn2)CC1 [Compound I-23] | ≥ 750 nM | ≥ 750 nM | < 250 nM |  |  |  | 
22 | CN1CCC(n2cc(-c3ccc4c(c3)C(=O)N(Cc3cccc5cc[nH]c35)c3cc(F)ccc3N4)cn2)CC1 [Compound I-25] | ≥ 750 nM | ≥ 750 nM | < 250 nM |  |  |  | 
23 | CN1CCN(c2ccc(Oc3ccc4c(c3)C(=O)N(Cc3ccccc3)c3cc(F)ccc3N4)cc2)CC1 [Compound I-20, 10-benzyl-8-fluoro-2-(4-(4-methylpiperazin-1-yl)phenoxy)-5,10-dihydro-11H-dibenzo[b,e][1,4]diazepin-11-one] | ≥ 750 nM | 250 to 500 nM | < 250 nM |  |  |  | 
24 | O=C1c2cc(-c3ccc(N4CCNCC4)cc3)ccc2Nc2ncc(F)cc2N1Cc1ccccc1 [Compound I-12] | ≥ 750 nM | ≥ 750 nM | ≥ 750 nM |  |  |  | 
